# Laboratory results published in patent US20250057819A1, “DRUG COMBINATIONS FOR INHIBITING CORONAVIRUS REPLICATION” (priority 2021, published 2025).
# Structures can show the parent of a compound that is named as a salt. Where two headings read alike, the source gives them in different places.
# Tests used:
# Test in all cases: microbe, parasite or virus in culture
# Assay type in all cases: cell-based
# SARS-CoV-2 = conditions: read-out: SARS-CoV-2 (Vido) EC50
# SARS-CoV-2 (Alpha) = conditions: Huh7.5 cells, monotherapy
# SARS-CoV-2 (Beta) = conditions: Huh7.5 cells, monotherapy
# [1] = Severe acute respiratory syndrome coronavirus 2, Huh7.5
# [2] = Severe acute respiratory syndrome coronavirus 2
SMILES,EC50 (SARS-CoV-2) [nM],EC50 (SARS-CoV-2 (Alpha)) [nM],EC50 (SARS-CoV-2 (Beta)) [nM],EC50 (SARS-CoV-2; [1]) [nM],EC50 (SARS-CoV-2 (Alpha); [2]) [nM],EC50 (SARS-CoV-2 (Beta); [2]) [nM]
CC(C)C(=O)OC[C@H]1O[C@@H](n2cc/c(=N\O)[nH]c2=O)[C@H](O)[C@@H]1O [Molnupinavir],90,60,110,,,
Cc1c(O)cccc1C(=O)N[C@@H](CSc1ccccc1)[C@H](O)CN1C[C@H]2CCCC[C@H]2C[C@H]1C(=O)NC(C)(C)C [Nelfinavir mesylate],,,,1800,500,110
CCN(CC)CCOc1ccc2c(c1)C(=O)c1cc(OCCN(CC)CC)ccc1-2 [Tilorone dihydrochloride],,,,930,250,190
